In US20030171329A1, “Stable compositions comprising tezacitabine” (priority 2002, published 2003):
Where two headings read alike, the source gives them in different places.

Procedure: In this study the stabilty of FMdC glutamate and glycine buffers at pH 8.5 to 9.5 was evaluated at various storage conditions (5°, 25°, 35°, 45°, and 55° C.). FMdC solutions were made up at 1 mg/mL in 7.1 mg/mL monosodium glutamate monohydrate (38 mM) or 2.8 mg/mL glycine (37 mM) and pH adjusted to target with sodium hydroxide. Solution samples were placed in stoppered glass vials and stored at the various temperatures. […] Detention was by UV at 268 nm.
The higher-temperature data can be evaluated further by Arrhenius analysis to predict shelf lives at lower temperatures. First-order rate constants are determined by fitting the concentration and time data to an equation of the form C(t)=C(0)·exp (−k·t), where C(t) is the concentration at time t, C(0) is the concentration at time 0, t is the time, and k is the first-order rate constant. The rate constants are in turn fitted to an equation of the form k (T)=A·exp (−Ea/RT), where k(T) is the rate constant at temperature T, Ea is the energy of activation, R is the gas constant, T is the absolute temperature (in ° K), and A is a constant.

[1] = Glutamate pH 8.5 buffer, 5° C., 24 weeks
[2] = Glutamate pH 8.5 buffer, 25° C., 0 weeks
[3] = Glutamate pH 8.5 buffer, 25° C., 4 weeks
[4] = Glutamate pH 8.5 buffer, 25° C., 16 weeks
[5] = Glutamate pH 8.5 buffer, 25° C., 24 weeks
[6] = Glutamate pH 8.5 buffer, 35° C., 0 weeks
[7] = Glutamate pH 8.5 buffer, 35° C., 4 weeks
[8] = Glutamate pH 8.5 buffer, 35° C., 16 weeks
[9] = Glutamate pH 8.5 buffer, 35° C., 24 weeks
[10] = Glutamate pH 8.5 buffer, 45° C., 0 weeks
[11] = Glutamate pH 8.5 buffer, 45° C., 4 weeks
[12] = Glutamate pH 9.0 buffer, 5° C., 24 weeks
[13] = Glutamate pH 9.0 buffer, 25° C., 0 weeks
[14] = Glutamate pH 9.0 buffer, 25° C., 4 weeks
[15] = Glutamate pH 9.0 buffer, 25° C., 16 weeks
[16] = Glutamate pH 9.0 buffer, 25° C., 24 weeks
[17] = Glutamate pH 9.0 buffer, 35° C., 0 weeks
[18] = Glutamate pH 9.0 buffer, 35° C., 4 weeks
[19] = Glutamate pH 9.0 buffer, 35° C., 16 weeks
[20] = Glutamate pH 9.0 buffer, 35° C., 24 weeks
[21] = Glutamate pH 9.0 buffer, 45° C., 0 weeks
[22] = Glutamate pH 9.0 buffer, 45° C., 4 weeks
[23] = Glutamate pH 9.5 buffer, 5° C., 24 weeks
[24] = Glutamate pH 9.5 buffer, 25° C., 0 weeks
[25] = Glutamate pH 9.5 buffer, 25° C., 4 weeks
[26] = Glutamate pH 9.5 buffer, 25° C., 16 weeks
[27] = Glutamate pH 9.5 buffer, 25° C., 24 weeks
[28] = Glutamate pH 9.5 buffer, 35° C., 0 weeks
[29] = Glutamate pH 9.5 buffer, 35° C., 4 weeks
[30] = Glutamate pH 9.5 buffer, 35° C., 16 weeks
[31] = Glutamate pH 9.5 buffer, 35° C., 24 weeks
[32] = Glutamate pH 9.5 buffer, 45° C., 0 weeks
[33] = Glutamate pH 9.5 buffer, 45° C., 4 weeks
[34] = Glycine pH 9.0 buffer, 5° C., 24 weeks
[35] = Glycine pH 9.0 buffer, 25° C., 0 weeks
[36] = Glycine pH 9.0 buffer, 25° C., 4 weeks
[37] = Glycine pH 9.0 buffer, 25° C., 16 weeks
[38] = Glycine pH 9.0 buffer, 25° C., 24 weeks
[39] = Glycine pH 9.0 buffer, 35° C., 0 weeks
[40] = Glycine pH 9.0 buffer, 35° C., 16 weeks
[41] = Glycine pH 9.0 buffer, 35° C., 24 weeks
[42] = Glycine pH 9.0 buffer, 45° C., 0 weeks

stability in words (1 mg/mL): stable for almost 6 months | predicted first-order rate constant of degradation (1 mg/mL, pH 9): 3.0·10^−4 week^−1 | FMdC (Glutamate pH 8.5 buffer, 5° C., 12 weeks): 1.00 mg/mL | pH (Glutamate pH 8.5 buffer, 5° C., 16 weeks): 8.63 | FMdC [1]: 1.00 mg/mL | pH [1]: 8.66 | FMdC [2]: 1.00 mg/mL | pH [2]: 8.50 | FMdC [3]: 1.00 mg/mL | pH [3]: 8.55 | FMdC [4]: 0.99 mg/mL | pH [4]: 7.93 | FMdC [5]: 0.99 mg/mL | pH [5]: 8.64 | FMdC [6]: 1.00 mg/mL | pH [6]: 8.50 | FMdC [7]: 1.00 mg/mL | pH [7]: 8.55 | FMdC [8]: 0.97 mg/mL | pH [8]: 8.59 | FMdC [9]: 0.95 mg/mL | pH [9]: 8.58 | FMdC [10]: 1.00 mg/mL | pH [10]: 8.50 | FMdC [11]: 0.98 mg/mL | pH [11]: 8.56 | FMdC (Glutamate pH 8.5 buffer, 45° C., 16 weeks): 0.85 mg/mL | FMdC (Glutamate pH 8.5 buffer, 45° C., 24 weeks): 0.47 mg/mL | FMdC (Glutamate pH 8.5 buffer, 55° C., 0 weeks): 1.00 mg/mL | FMdC (Glutamate pH 8.5 buffer, 55° C., 2 weeks): 0.91 mg/mL | FMdC (Glutamate pH 8.5 buffer, 55° C., 4 weeks): 0.72 mg/mL | FMdC (Glutamate pH 8.5 buffer, 55° C., 8 weeks): 0.03 mg/mL | FMdC (Glutamate pH 9.0 buffer, 5° C., 12 weeks): 1.00 mg/mL | pH (Glutamate pH 9.0 buffer, 5° C., 16 weeks): 9.10 | FMdC [12]: 1.00 mg/mL | pH [12]: 9.05 | FMdC [13]: 1.01 mg/mL | pH [13]: 9.00 | FMdC [14]: 1.01 mg/mL | pH [14]: 9.07 | FMdC [15]: 0.99 mg/mL | pH [15]: 8.80 | FMdC [16]: 0.99 mg/mL | pH [16]: 9.09 | FMdC [17]: 1.01 mg/mL | pH [17]: 9.00 | FMdC [18]: 1.01 mg/mL | pH [18]: 9.06 | FMdC [19]: 0.98 mg/mL | pH [19]: 9.08 | FMdC [20]: 0.98 mg/mL | pH [20]: 9.08 | FMdC [21]: 1.01 mg/mL | pH [21]: 9.00 | FMdC [22]: 0.99 mg/mL | pH [22]: 9.04 | FMdC (Glutamate pH 9.0 buffer, 45° C., 16 weeks): 0.92 mg/mL | FMdC (Glutamate pH 9.0 buffer, 45° C., 24 weeks): 0.88 mg/mL | FMdC (Glutamate pH 9.0 buffer, 55° C., 0 weeks): 1.01 mg/mL | FMdC (Glutamate pH 9.0 buffer, 55° C., 2 weeks): 0.96 mg/mL | FMdC (Glutamate pH 9.0 buffer, 55° C., 4 weeks): 0.91 mg/mL | FMdC (Glutamate pH 9.0 buffer, 55° C., 8 weeks): 0.78 mg/mL | FMdC (Glutamate pH 9.5 buffer, 5° C., 12 weeks): 1.00 mglmL | pH (Glutamate pH 9.5 buffer, 5° C., 16 weeks): 9.54 | FMdC [23]: 1.01 mglmL | pH [23]: 9.57 | FMdC [24]: 1.00 mglmL | pH [24]: 9.50 | FMdC [25]: 1.00 mglmL | pH [25]: 9.53 | FMdC [26]: 1.00 mglmL | pH [26]: 9.55 | FMdC [27]: 0.99 mglmL | pH [27]: 9.57 | FMdC [28]: 1.00 mglmL | pH [28]: 9.50 | FMdC [29]: 1.00 mglmL | pH [29]: 9.54 | FMdC [30]: 0.98 mglmL | pH [30]: 9.59 | FMdC [31]: 0.97 mglmL | pH [31]: 9.62 | FMdC [32]: 1.00 mglmL | pH [32]: 9.50 | FMdC [33]: 0.99 mglmL | pH [33]: 9.56 | FMdC (Glutamate pH 9.5 buffer, 45° C., 16 weeks): 0.92 mglmL | FMdC (Glutamate pH 9.5 buffer, 45° C., 24 weeks): 0.89 mglmL | FMdC (Glutamate pH 9.5 buffer, 55° C., 0 weeks): 1.00 mglmL | FMdC (Glutamate pH 9.5 buffer, 55° C., 2 weeks): 0.97 mglmL | FMdC (Glutamate pH 9.5 buffer, 55° C., 4 weeks): 0.93 mglmL | FMdC (Glutamate pH 9.5 buffer, 55° C., 8 weeks): 0.82 mglmL | FMdC (Glycine pH 9.0 buffer, 5° C., 12 weeks): 1.01 mg/mL | pH (Glycine pH 9.0 buffer, 5° C., 16 weeks): 9.30 | FMdC [34]: 1.00 mg/mL | pH [34]: 9.33 | FMdC [35]: 1.00 mg/mL | pH [35]: 9.00 | FMdC [36]: 1.01 mg/mL | pH [36]: 9.33 | FMdC [37]: 1.00 mg/mL | pH [37]: 9.30 | FMdC [38]: 0.99 mg/mL | pH [38]: 9.32 | FMdC [39]: 1.00 mg/mL | pH [39]: 9.00 | pH (Glycine pH 9.0 buffer, 35° C., 4 weeks): 9.32 | FMdC [40]: 0.98 mg/mL | pH [40]: 9.32 | FMdC [41]: 0.97 mg/mL | pH [41]: 9.31 | FMdC [42]: 1.00 mg/mL | pH [42]: 9.00 | FMdC (Glycine pH 9.0 buffer, 45° C., 4 weeks): 0.99 mg/mL | FMdC (Glycine pH 9.0 buffer, 45° C., 16 weeks): 0.92 mg/mL | FMdC (Glycine pH 9.0 buffer, 45° C., 24 weeks): 0.88 mg/mL | FMdC (Glycine pH 9.0 buffer, 55° C., 0 weeks): 1.00 mg/mL | FMdC (Glycine pH 9.0 buffer, 55° C., 4 weeks): 0.91 mg/mL | shelf-life (time at which 5% degradation would be expected) (pH 9): several years
SMILES: Nc1ccn([C@@H]2O[C@H](CO)[C@@H](O)/C2=C\F)c(=O)n1 [FMdC, (E)-2′-deoxy-2′-(fluoromethylene)cytidine]
